Laboratory results taken from ChEMBL document CHEMBL1201861, “Genomics of Drug Sensitity in Cancer screening data, Wellcome Trust Sanger Institute”.

Tests used:
Assay in all cases: cells
Format in all cases: functional, cell-based
Conditions in all cases: Homo sapiens
[1] = tested on: SCH;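 note: growth inhibition of human SCH cells, read out in a cell viability assay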
Description: SANGER: Inhibition of human SCH cell growth in a cell viability assay.

[2] = tested on: SF-268;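 note: growth inhibition of SF-268 cells determined with a cell viability assay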
Description: SANGER: Inhibition of human SF268 cell growth in a cell viability assay.

[3] = tested on: BE-13;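 note: growth inhibition of human BE-13 cells, measured with a cell viability assay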
Description: SANGER: Inhibition of human BE-13 cell growth in a cell viability assay.

[4] = tested on: NMC-G1;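 note: growth inhibition of the NMC-G1 cell line, measured with a cell viability read-out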
Description: SANGER: Inhibition of human NMC-G1 cell growth in a cell viability assay.

[5] = tested on: MN-60;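 note: growth inhibition of the MN-60 cell line, determined with a cell viability assay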
Description: SANGER: Inhibition of human MN-60 cell growth in a cell viability assay.

[6] = tested on: ONS-76;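 note: growth inhibition of human ONS-76 cells, read out with a cell viability assay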
Description: SANGER: Inhibition of human ONS-76 cell growth in a cell viability assay.

[7] = tested on: KALS-1;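 note: growth inhibition of KALS-1 cells, determined with a cell viability assay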
Description: SANGER: Inhibition of human KALS-1 cell growth in a cell viability assay.

[8] = tested on: KM-H2;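 note: growth inhibition of KM-H2 cells, read out by a cell viability assay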
Description: SANGER: Inhibition of human KM-H2 cell growth in a cell viability assay.

[9] = tested on: GOTO;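 note: growth inhibition of GOTO cells, read out by a cell viability assay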
Description: SANGER: Inhibition of human GOTO cell growth in a cell viability assay.

[10] = tested on: MMAC-SF;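 note: growth inhibition of human MMAC-SF cells, read out with a cell viability assay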
Description: SANGER: Inhibition of human MMAC-SF cell growth in a cell viability assay.

[11] = tested on: ES1;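 note: growth inhibition of ES1 cells, read out with a cell viability assay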
Description: SANGER: Inhibition of human ES1 cell growth in a cell viability assay.

[12] = tested on: EW-1;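 note: growth inhibition of the human EW-1 cell line, read out by a cell viability assay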
Description: SANGER: Inhibition of human EW-1 cell growth in a cell viability assay.

[13] = tested on: TE-10;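 note: growth inhibition of TE-10 cells, measured by a cell viability assay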
Description: SANGER: Inhibition of human TE-10 cell growth in a cell viability assay.

[14] = tested on: J-RT3-T3-5;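 note: cell viability assay measuring growth inhibition of human J-RT3-T3-5 cells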
Description: SANGER: Inhibition of human J-RT3-T3-5 cell growth in a cell viability assay.

[15] = tested on: NCI-H1581;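 note: cell growth inhibition read out by a viability assay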
Description: SANGER: Inhibition of human NCI-H1581 cell growth in a cell viability assay.

[16] = tested on: KLE;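 note: growth inhibition of human KLE cells, read out with a cell viability assay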
Description: SANGER: Inhibition of human KLE cell growth in a cell viability assay.

[17] = tested on: CGTH-W-1;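 note: growth inhibition of human CGTH-W-1 cells measured by cell viability assay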
Description: SANGER: Inhibition of human CGTH-W-1 cell growth in a cell viability assay.

[18] = tested on: RPMI-8226
Description: SANGER: Inhibition of human RPMI-8226 cell growth in a cell viability assay.

[19] = tested on: EW-16;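 note: growth inhibition of human EW-16 cells, read out as cell viability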
Description: SANGER: Inhibition of human EW-16 cell growth in a cell viability assay.

[20] = tested on: 697
Description: SANGER: Inhibition of human 697 cell growth in a cell viability assay.

[21] = tested on: SK-MEL-1;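 note: growth inhibition of human SK-MEL-1 cells, read out by a cell viability assay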
Description: SANGER: Inhibition of human SK-MEL-1 cell growth in a cell viability assay.

[22] = tested on: NCI-H1648;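 note: cell viability assay measuring inhibition of NCI-H1648 cell growth, from the Sanger screening data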
Description: SANGER: Inhibition of human NCI-H1648 cell growth in a cell viability assay.

[23] = tested on: K562
Description: SANGER: Inhibition of human K-562 cell growth in a cell viability assay.

[24] = tested on: LAN-6;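 note: growth inhibition of LAN-6 cells, determined with a cell viability assay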
Description: SANGER: Inhibition of human LAN-6 cell growth in a cell viability assay.

[25] = tested on: SNU-C2B;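 note: cell viability readout used to measure compound-driven suppression of SNU-C2B cell proliferation, IC50 marking half-maximal growth inhibition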
Description: SANGER: Inhibition of human SNU-C2B cell growth in a cell viability assay.

[26] = tested on: KNS-42;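 note: growth inhibition of KNS-42 cells, read out with a cell viability assay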
Description: SANGER: Inhibition of human KNS-42 cell growth in a cell viability assay.

[27] = tested on: KS-1;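 note: growth inhibition of KS-1 cells, read out with a cell viability assay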
Description: SANGER: Inhibition of human KS-1 cell growth in a cell viability assay.

[28] = tested on: HT
Description: SANGER: Inhibition of human HT cell growth in a cell viability assay.

[29] = tested on: TE-5;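 note: inhibition of cell growth, read out by a cell viability assay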
Description: SANGER: Inhibition of human TE-5 cell growth in a cell viability assay.

[30] = tested on: K5
Description: SANGER: Inhibition of human K5 cell growth in a cell viability assay.

[31] = tested on: MOLT-16;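 note: growth inhibition of human MOLT-16 cells, read out with a cell viability assay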
Description: SANGER: Inhibition of human MOLT-16 cell growth in a cell viability assay.

[32] = tested on: AM-38;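 note: growth inhibition of AM-38 cells of human origin, read out by a cell viability assay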
Description: SANGER: Inhibition of human AM-38 cell growth in a cell viability assay.

[33] = tested on: KURAMOCHI;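 note: growth inhibition of KURAMOCHI cells, read out with a cell viability assay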
Description: SANGER: Inhibition of human KURAMOCHI cell growth in a cell viability assay.

[34] = tested on: SJSA-1;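 note: growth inhibition of human SJSA-1 cells, read out through a cell viability measurement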
Description: SANGER: Inhibition of human SJSA-1 cell growth in a cell viability assay.

[35] = tested on: LS-1034
Description: SANGER: Inhibition of human LS-1034 cell growth in a cell viability assay.

[36] = tested on: 8-MG-BA;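 note: growth inhibition of 8-MG-BA cells, read out with a cell viability assay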
Description: SANGER: Inhibition of human 8-MG-BA cell growth in a cell viability assay.

[37] = tested on: GI-1;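 note: growth inhibition of human GI-1 cells, measured with a cell viability readout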
Description: SANGER: Inhibition of human GI-1 cell growth in a cell viability assay.

[38] = tested on: SW982;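 note: growth inhibition of SW982 cells, read out with a cell viability assay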
Description: SANGER: Inhibition of human SW982 cell growth in a cell viability assay.

[39] = tested on: no-11;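 note: growth inhibition of human NO-11 cells, read out with a cell viability assay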
Description: SANGER: Inhibition of human no-11 cell growth in a cell viability assay.

[40] = tested on: SK-PN-DW;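 note: growth inhibition measured with a viability assay on these cells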
Description: SANGER: Inhibition of human SK-PN-DW cell growth in a cell viability assay.

[41] = tested on: COLO-824
Description: SANGER: Inhibition of human COLO-824 cell growth in a cell viability assay.

[42] = tested on: NTERA-2-cl-D1;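 note: inhibition of cell growth, measured with a cell viability assay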
Description: SANGER: Inhibition of human NTERA-S-cl-D1 cell growth in a cell viability assay.

[43] = tested on: LOX IMVI
Description: SANGER: Inhibition of human LOXIMVI cell growth in a cell viability assay.

[44] = tested on: VA-ES-BJ;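 note: growth inhibition of the VA-ES-BJ cell line, read out by a cell viability assay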
Description: SANGER: Inhibition of human VA-ES-BJ cell growth in a cell viability assay.

[45] = tested on: SW872;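 note: growth inhibition of SW872 cells, read out by a viability assay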
Description: SANGER: Inhibition of human SW872 cell growth in a cell viability assay.

[46] = tested on: SK-NEP-1;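 note: growth inhibition of human SK-NEP-1 cells, read out by a cell viability assay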
Description: SANGER: Inhibition of human SK-NEP-1 cell growth in a cell viability assay.

[47] = tested on: ACN;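 note: growth inhibition of the human ACN cell line, read out via cell viability testing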
Description: SANGER: Inhibition of human ACN cell growth in a cell viability assay.

[48] = tested on: TGBC1TKB;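 note: growth inhibition of TGBC1TKB cells, read out by a cell viability assay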
Description: SANGER: Inhibition of human TGBC1TKB cell growth in a cell viability assay.

[49] = tested on: U-266
Description: SANGER: Inhibition of human U-266 cell growth in a cell viability assay.

[50] = tested on: MFH-ino;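 note: growth inhibition of human MFH-ino cells, read out by a cell viability assay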
Description: SANGER: Inhibition of human MFH-ino cell growth in a cell viability assay.

[51] = tested on: DU-4475
Description: SANGER: Inhibition of human DU-4475 cell growth in a cell viability assay.

[52] = tested on: NCI-H226;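 note: cell viability read-out used to gauge growth inhibition of the cells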
Description: SANGER: Inhibition of human NCI-H226 cell growth in a cell viability assay.

[53] = tested on: A4-Fuk;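 note: growth inhibition of A4-Fuk cells, read out by a cell viability assay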
Description: SANGER: Inhibition of human A4-Fuk cell growth in a cell viability assay.

[54] = tested on: NCI-H1838;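 note: growth inhibition of NCI-H1838 cells, determined with a cell viability readout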
Description: SANGER: Inhibition of human NCI-H1838 cell growth in a cell viability assay.

[55] = tested on: OMC-1;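 note: growth inhibition of the OMC-1 cell line, measured by a cell viability assay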
Description: SANGER: Inhibition of human OMC-1 cell growth in a cell viability assay.

[56] = tested on: LC-2-ad;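 note: growth inhibition of human LC-2-ad cells, read out with a cell viability assay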
Description: SANGER: Inhibition of human LC-2-ad cell growth in a cell viability assay.

[57] = tested on: MEG-01;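 note: growth inhibition of MEG-01 cells, read out by a cell viability assay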
Description: SANGER: Inhibition of human MEG-01 cell growth in a cell viability assay.

[58] = tested on: CTB-1
Description: SANGER: Inhibition of human CTB-1 cell growth in a cell viability assay.

[59] = tested on: CCRF-CEM;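 note: inhibition of CCRF-CEM cell growth, measured by a cell viability assay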
Description: SANGER: Inhibition of human CCRF-CEM cell growth in a cell viability assay.

[60] = tested on: ATN-1;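 note: growth inhibition of human ATN-1 cells, read out with a cell viability assay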
Description: SANGER: Inhibition of human ATN-1 cell growth in a cell viability assay.

[61] = tested on: A101D
Description: SANGER: Inhibition of human A101D cell growth in a cell viability assay.

[62] = tested on: KINGS-1
Description: SANGER: Inhibition of human KINGS-1 cell growth in a cell viability assay.

[63] = tested on: NCI-H69
Description: SANGER: Inhibition of human NCI-H69 cell growth in a cell viability assay.

[64] = tested on: JVM-2
Description: SANGER: Inhibition of human JVM-2 cell growth in a cell viability assay.

[65] = tested on: NCI-H209
Description: SANGER: Inhibition of human NCI-H209 cell growth in a cell viability assay.

[66] = tested on: EC-GI-10
Description: SANGER: Inhibition of human EC-GI-10 cell growth in a cell viability assay.

Measured: IC50

O=c1cc(N2CCOCC2)oc2c(-c3cccc4c3sc3ccccc34)cccc12
1790 nM: [21]
1120 nM: [58]
not listed: [63] | [64] | [65] | [66]
> 2000 nM: all other assays above

Cc1ccc(NC(=O)c2cccc(C(C)(C)C#N)c2)cc1Nc1ccc2ncn(C)c(=O)c2c1
667 nM: [23]
682 nM: [24]
393 nM: [27]
134 nM: [30]
10.2 nM: [51]
96.5 nM: [45]
40.1 nM: [10]
1430 nM: [34]
484 nM: [53]
2470 nM: [18]
167 nM: [6]
< 15.6 nM: [47]
364 nM: [20]
376 nM: [57]
673 nM: [22]
806 nM: [3]
472 nM: [46]
5.82 nM: [61]
384 nM: [21]
121 nM: [17]
not listed: [16] | [25] | [38]
> 4000 nM: all other assays above

CCn1c(-c2nonc2N)nc2cnc(Oc3cccc(NC(=O)c4ccc(OCCN5CCOCC5)cc4)c3)cc21 [GSK-269962A]
1870 nM: [61]
141 nM: [3]
887 nM: [45]
5.23 nM: [37]
1050 nM: [34]
4.6 nM: [27]
299 nM: [20]
644 nM: [50]
not listed: [16] | [25] | [38]
> 2500 nM: all other assays above

CC(=O)c1c(C)c2cnc(Nc3ccc(N4CCNCC4)cn3)nc2n(C2CCCC2)c1=O [PALBOCICLIB]
2310 nM: [5]
2380 nM: [34]
256 nM: [11]
148 nM: [20]
444 nM: [3]
220 nM: [46]
732 nM: [44]
405 nM: [58]
1170 nM: [17]
2230 nM: [2]
604 nM: [19]
696 nM: [8]
936 nM: [14]
1980 nM: [45]
3770 nM: [61]
258 nM: [31]
678 nM: [6]
527 nM: [18]
1910 nM: [43]
not listed: [7] | [10] | [22] | [30] | [50] | [54] | [66]
> 4000 nM: all other assays above
